We go through 1 compound from ChEMBL document CHEMBL1144114, “A new cacospongionolide derivative from the sponge Fasciospongia cavernosa” (J Nat Prod, 1999).

One series deals with Artemia salina. As to the kind of experiment: Toxicity against Artemia salina. Conditions: in vivo. Format: organism-based.
A further series concerns Bacillus subtilis. As to the kind of experiment: Antibacterial activity against Bacillus subtilis DSM 347. The format is functional.
A further series relates to Gambusia affinis. As to the kind of experiment: Toxicity against Gambusia affinis. Conditions: in vivo. The format is organism-based.
Another series concerns Micrococcus luteus. Kind of series: Antibacterial activity against Micrococcus luteus DSM 348. The format is functional.

≈ marks a conversion by molar mass, not a printed value.

The term LC50 denotes the concentration that kills 50% of the test population. A word on the MIC: it is the least concentration at which growth counts as inhibited. A higher MIC goes with a less susceptible organism. Consider `C[C@H]1CC=C2[C@H](CCCC2(C)C)[C@@]1(C)CCC1=CC[C@H](C2=CC(=O)O[C@H]2O)OC1` [CACOSPONGIONOLIDE F], for which the LC50 in the series on Artemia salina is 0.17 ppm; in the series with Gambusia affinis it was 0.7 ppm. For the same compound, the MIC in the series with Bacillus subtilis and in the series with Micrococcus luteus was 0.78 µg/mL (≈ 1.95 µM) in each case.
